In patent US20070259933A1, “COMPOSITIONS, DOSAGE FORMS AND METHODS OF TREATING EMESIS” (XenoPort, Inc., priority 2006, published 2007):
Where two headings read alike, the source gives them in different places.

Experiments:
[1] = Regional gastrointestinal absorption of propofol prodrug; format: in vivo; details: oral; colon vs upper gastrointestinal tract
[2] = cited from earlier work
[3] = orally administered propofol; dose-normalized oral vs intravenous; cited from earlier work
[4] = oral dosing, rats; cited from earlier work
[5] = test system: sedation / general anesthesia; details: in vivo; cited from earlier work
[6] = oral dose of 5-20 mg granisetron
[7] = oral dose of 25-200 mg dolasetron

CC(C)c1cccc(C(C)C)c1OC(=O)OC[C@H](N)C(=O)O [(S)-2-amino-3-(2,6-diisopropylphenoxycarbonyloxy)-propanoic acid]
gastrointestinal absorption [1]: limited colonic absorption

CN1[C@@H]2CC[C@H]1C[C@@H](OC(=O)c1c[nH]c3ccccc13)C2 [tropisetron]
AUC ([2]; oral dose of 5 mg tropisetron): about 230 ng·mL·h^−1
maximum plasma concentration ([2]; oral dose of 5 mg tropisetron): about 22 ng/mL
oral bioavailability ([2]; oral dose of 5 mg tropisetron): 60-99%
terminal elimination half-life ([2]; oral dose of 5 mg tropisetron): 8.6 h

Cc1nccn1CC1CCc2c(c3ccccc3n2C)C1=O (stereo not shown) [ondansetron]
AUC ([2]; oral dose of 8 mg ondansetron): 101 to 351 ng·mL/h
maximum plasma concentration ([2]; oral dose of 8 mg ondansetron): 20 to 52 ng/mL
oral bioavailability ([2]; oral dose of 8 mg ondansetron): 48-75%
terminal elimination half-life ([2]; oral dose of 8 mg ondansetron): 2.5 to 6.2 h

CN1C2CCCC1CC(NC(=O)c1nn(C)c3ccccc13)C2 (stereo not shown) [granisetron]
AUC [2, 6]: 83 to 350 ng·mL/h
maximum plasma concentration [2, 6]: 14 to 68 ng/mL
terminal elimination half-life [2, 6]: 1.5 to 5.7 h

O=C(O[C@@H]1C[C@@H]2C[C@H]3C[C@H](C1)N2CC3=O)c1c[nH]c2ccccc12 [dolasetron]
AUC [2, 7]: about 1,233 ng·mL·h^−1
oral bioavailability [2, 7]: 70-89%
terminal elimination half-life [2, 7]: 5 to 10 h

CC(C)c1cccc(C(C)C)c1O [propofol, 2,6-diisopropylphenol]
absolute oral bioavailability [3]: less than 2%
fraction of administered drug undergoing first pass metabolism [4]: approximately 90%
propofol plasma concentrations needed for sedation [5]: 1,500-2,000 ng/mL
propofol plasma concentrations needed for the maintenance of general anesthesia [5]: 3,000-10,000 ng/mL
